Measured values published in ChEMBL document CHEMBL1671854, “ramR mutations involved in efflux-mediated multidrug resistance in Salmonella enterica serovar Typhimurium” (2008).
Converted amounts (≈) assume the structure as drawn.

Tests used:
Type in all cases: functional, Salmonella enterica subsp. enterica serovar Typhimurium
Salmonella typhimurium [1] = assay: Antimicrobial activity against Salmonella enterica serovar Typhimurium BN18 by agar doubling dilution method
Salmonella typhimurium [2] = assay: Antimicrobial activity against Salmonella enterica serovar Typhimurium BN18/71 harboring plasmid encoded RamR gene, GyrA G81C,acrR mutant genes by agar doubling dilution method
Salmonella typhimurium [3] = assay: Antimicrobial activity against multidrug-resistant Salmonella enterica serovar Typhimurium 543SA98 harboring plasmid encoded RamR gene, GyrA S83Y mutant gene by agar doubling dilution method
Salmonella typhimurium [4] = assay: Antimicrobial activity against Salmonella enterica serovar Typhimurium BN18/71 harboring GyrA G81C, acrR mutant genes by agar doubling dilution method
Salmonella typhimurium [5] = assay: Antimicrobial activity against Salmonella enterica serovar Typhimurium BN18/41 harboring GyrA G81C,acrR mutant genes by agar doubling dilution method
Salmonella typhimurium [6] = assay: Antimicrobial activity against ramA::kan-deficient Salmonella enterica serovar Typhimurium S/921495 by agar doubling dilution method
Salmonella typhimurium [7] = assay: Antimicrobial activity against multidrug-resistant Salmonella enterica serovar Typhimurium 102SA00 harboring GyrA S83A and D87N, GyrB S464F and ParC S80I mutant genes by agar doubling dilution method
Salmonella typhimurium [8] = assay: Antimicrobial activity against multidrug-resistant Salmonella enterica serovar Typhimurium 902SA92 harboring GyrA S83A and D87N, GyrB S464F and ParC S80I mutant genes by agar doubling dilution method
Salmonella typhimurium [9] = assay: Antimicrobial activity against ramA::kan-deficient Salmonella enterica serovar Typhimurium BN9181 by agar doubling dilution method
Salmonella typhimurium [10] = assay: Antimicrobial activity against Salmonella enterica serovar Typhimurium BN18 harboring plasmid encoded RamR gene by agar doubling dilution method
Salmonella typhimurium [11] = assay: Antimicrobial activity against ramA::kan-deficient Salmonella enterica serovar Typhimurium BN9945 by agar doubling dilution method
Salmonella typhimurium [12] = assay: Antimicrobial activity against Salmonella enterica serovar Typhimurium S/921495 harboring plasmid encoded RamR gene by agar doubling dilution method
Salmonella typhimurium [13] = assay: Antimicrobial activity against soxS::kan-deficient Salmonella enterica serovar Typhimurium S/921495 by agar doubling dilution method
Salmonella typhimurium [14] = assay: Antimicrobial activity against ramR-deficient Salmonella enterica serovar Typhimurium S/921495 by agar doubling dilution method
Salmonella typhimurium [15] = assay: Antimicrobial activity against Salmonella enterica serovar Typhimurium BN18/41 harboring plasmid encoded RamR gene, GyrA G81C,acrR mutant genes by agar doubling dilution method
Salmonella typhimurium [16] = assay: Antimicrobial activity against multidrug-resistant Salmonella enterica serovar Typhimurium BN10055 harboring plasmid encoded RamR gene, GyrA S83Y mutant gene by agar doubling dilution method
Salmonella typhimurium [17] = assay: Antimicrobial activity against ramA::kan-deficient Salmonella enterica serovar Typhimurium BN10055 harboring GyrA S83Y mutant gene by agar doubling dilution method
Salmonella typhimurium [18] = assay: Antimicrobial activity against ramA::kan-deficient Salmonella enterica serovar Typhimurium BN18/71 harboring plasmid encoded RamR gene, GyrA G81C,acrR mutant genes by agar doubling dilution method
Salmonella typhimurium [19] = assay: Antimicrobial activity against multidrug-resistant Salmonella enterica serovar Typhimurium BN9945 harboring plasmid encoded RamR gene by agar doubling dilution method
Salmonella typhimurium [20] = assay: Antimicrobial activity against ramA::kan-deficient Salmonella enterica serovar Typhimurium BN18 by agar doubling dilution method
Salmonella typhimurium [21] = assay: Antimicrobial activity against ramA::kan-deficient Salmonella enterica serovar Typhimurium 543SA98 harboring GyrA S83Y mutant gene by agar doubling dilution method
Salmonella typhimurium [22] = assay: Antimicrobial activity against Salmonella enterica serovar Typhimurium BN18/21 harboring plasmid encoded RamR gene by agar doubling dilution method
Salmonella typhimurium [23] = assay: Antimicrobial activity against marR::kan-deficient Salmonella enterica serovar Typhimurium S/921495 by agar doubling dilution method
Salmonella typhimurium [24] = assay: Antimicrobial activity against soxR::kan-deficient Salmonella enterica serovar Typhimurium S/921495 by agar doubling dilution method
Salmonella typhimurium [25] = assay: Antimicrobial activity against Salmonella enterica serovar Typhimurium BN18/21 by agar doubling dilution method
Salmonella typhimurium [26] = assay: Antimicrobial activity against ramA::kan-deficient Salmonella enterica serovar Typhimurium BN18/41 harboring plasmid encoded RamR gene, GyrA G81C,acrR mutant genes by agar doubling dilution method
Salmonella typhimurium [27] = assay: Antimicrobial activity against ramA::kan-deficient Salmonella enterica serovar Typhimurium 102SA00 harboring GyrA S83A and D87N, GyrB S464F and ParC S80I mutant genes by agar doubling dilution method
Salmonella typhimurium [28] = assay: Antimicrobial activity against ramA::kan-deficient Salmonella enterica serovar Typhimurium BN18/21 by agar doubling dilution method
Salmonella typhimurium [29] = assay: Antimicrobial activity against marR-deficient Salmonella enterica serovar Typhimurium S/921495 by agar doubling dilution method
Salmonella typhimurium [30] = assay: Antimicrobial activity against ramA::kan-deficient Salmonella enterica serovar Typhimurium 902SA92 harboring GyrA S83A and D87N, GyrB S464F and ParC S80I mutant genes by agar doubling dilution method
Salmonella typhimurium [31] = assay: Antimicrobial activity against multidrug-resistant Salmonella enterica serovar Typhimurium BN9181 harboring plasmid encoded RamR gene by agar doubling dilution method
Salmonella typhimurium [32] = assay: Antimicrobial activity against marA::kan-deficient Salmonella enterica serovar Typhimurium S/921495 by agar doubling dilution method
Salmonella typhimurium [33] = assay: Antimicrobial activity against multidrug-resistant Salmonella enterica serovar Typhimurium 543SA98 harboring GyrA […] mutant gene by agar doubling dilution method
Salmonella typhimurium [34] = assay: Antimicrobial activity against multidrug-resistant Salmonella enterica serovar Typhimurium BN10055 harboring GyrA S83Y mutant gene by agar doubling dilution method
Salmonella typhimurium [35] = assay: Antimicrobial activity against multidrug-resistant Salmonella enterica serovar Typhimurium BN9945 by agar doubling dilution method
Salmonella typhimurium [36] = assay: Antimicrobial activity against multidrug-resistant Salmonella enterica serovar Typhimurium 902SA92 harboring plasmid encoded RamR gene, GyrA S83A and D87N, GyrB S464F and ParC S80I mutant genes by agar doubling dilution method
Salmonella typhimurium [37] = assay: Antimicrobial activity against Salmonella enterica serovar Typhimurium S/921495 by agar doubling dilution method
Salmonella typhimurium [38] = assay: Antimicrobial activity against ramR-deficient Salmonella enterica serovar Typhimurium S/921495 harboring plasmid encoded RamR gene by agar doubling dilution method
Salmonella typhimurium [39] = assay: Antimicrobial activity against multidrug-resistant Salmonella enterica serovar Typhimurium 102SA00 harboring plasmid encoded RamR gene, GyrA S83A and D87N, GyrB S464F and ParC S80I mutant genes by agar doubling dilution method
Salmonella typhimurium [40] = assay: Antimicrobial activity against multidrug-resistant Salmonella enterica serovar Typhimurium BN9181 by agar doubling dilution method
Salmonella typhimurium [41] = assay: Antimicrobial activity against ramR::kan-deficient Salmonella enterica serovar Typhimurium S/921495 by agar doubling dilution method

## CC1CCc2cc(F)cc3c(=O)c(C(=O)O)cn1c23 (configuration not stated) [FLUMEQUINE]
Salmonella typhimurium [1]
  MIC: 0.5 µg/mL (≈ 1.91 µM)
Salmonella typhimurium [2]
  MIC: 256 µg/mL (≈ 980 µM)
Salmonella typhimurium [3]
  MIC: 8 µg/mL (≈ 30.6 µM)
Salmonella typhimurium [4]
  MIC: 512 µg/mL (≈ 1960 µM)
Salmonella typhimurium [5]
  MIC: 256 µg/mL (≈ 980 µM)
Salmonella typhimurium [6]
  MIC: 0.5 µg/mL (≈ 1.91 µM)
Salmonella typhimurium [7]
  MIC: 2050 µg/mL (≈ 7840 µM)
Salmonella typhimurium [8]
  MIC: 2050 µg/mL (≈ 7840 µM)
Salmonella typhimurium [9]
  MIC: 0.5 µg/mL (≈ 1.91 µM)
Salmonella typhimurium [10]
  MIC: 0.5 µg/mL (≈ 1.91 µM)
Salmonella typhimurium [11]
  MIC: 8 µg/mL (≈ 30.6 µM)
Salmonella typhimurium [12]
  MIC: 0.5 µg/mL (≈ 1.91 µM)
Salmonella typhimurium [13]
  MIC: 0.5 µg/mL (≈ 1.91 µM)
Salmonella typhimurium [14]
  MIC: 2 µg/mL (≈ 7.66 µM)
Salmonella typhimurium [15]
  MIC: 64 µg/mL (≈ 245 µM)
Salmonella typhimurium [16]
  MIC: 64 µg/mL (≈ 245 µM)
Salmonella typhimurium [17]
  MIC: 16 µg/mL (≈ 61.2 µM)
Salmonella typhimurium [18]
  MIC: 256 µg/mL (≈ 980 µM)
Salmonella typhimurium [19]
  MIC: 8 µg/mL (≈ 30.6 µM)
Salmonella typhimurium [20]
  MIC: 0.5 µg/mL (≈ 1.91 µM)
Salmonella typhimurium [21]
  MIC: 8 µg/mL (≈ 30.6 µM)
Salmonella typhimurium [22]
  MIC: 2 µg/mL (≈ 7.66 µM)
Salmonella typhimurium [23]
  MIC: 0.5 µg/mL (≈ 1.91 µM)
Salmonella typhimurium [24]
  MIC: 0.5 µg/mL (≈ 1.91 µM)
Salmonella typhimurium [25]
  MIC: 8 µg/mL (≈ 30.6 µM)
Salmonella typhimurium [26]
  MIC: 64 µg/mL (≈ 245 µM)
Salmonella typhimurium [27]
  MIC: 512 µg/mL (≈ 1960 µM)
Salmonella typhimurium [28]
  MIC: 2 µg/mL (≈ 7.66 µM)
Salmonella typhimurium [29]
  MIC: 0.5 µg/mL (≈ 1.91 µM)
Salmonella typhimurium [30]
  MIC: 512 µg/mL (≈ 1960 µM)
Salmonella typhimurium [31]
  MIC: 0.5 µg/mL (≈ 1.91 µM)
Salmonella typhimurium [32]
  MIC: 0.5 µg/mL (≈ 1.91 µM)
Salmonella typhimurium [33]
  MIC: 32 µg/mL (≈ 122 µM)
Salmonella typhimurium [34]
  MIC: 64 µg/mL (≈ 245 µM)
Salmonella typhimurium [35]
  MIC: 32 µg/mL (≈ 122 µM)
Salmonella typhimurium [36]
  MIC: 512 µg/mL (≈ 1960 µM)
Salmonella typhimurium [37]
  MIC: 0.5 µg/mL (≈ 1.91 µM)
Salmonella typhimurium [38]
  MIC: 0.5 µg/mL (≈ 1.91 µM)
Salmonella typhimurium [39]
  MIC: 512 µg/mL (≈ 1960 µM)
Salmonella typhimurium [40]
  MIC: 0.5 µg/mL (≈ 1.91 µM)
Salmonella typhimurium [41]
  MIC: 2 µg/mL (≈ 7.66 µM)

## CN(C)[C@@H]1C(O)=C(C(N)=O)C(=O)[C@@]2(O)C(O)=C3C(=O)c4c(O)cccc4[C@@](C)(O)[C@H]3C[C@@H]12 [TETRACYCLINE]
Salmonella typhimurium [1]
  MIC: 1 µg/mL (≈ 2.25 µM)
Salmonella typhimurium [2]
  MIC: 2 µg/mL (≈ 4.5 µM)
Salmonella typhimurium [3]
  MIC: 32 µg/mL (≈ 72 µM)
Salmonella typhimurium [4]
  MIC: 16 µg/mL (≈ 36 µM)
Salmonella typhimurium [5]
  MIC: 8 µg/mL (≈ 18 µM)
Salmonella typhimurium [6]
  MIC: 1 µg/mL (≈ 2.25 µM)
Salmonella typhimurium [7]
  MIC: 256 µg/mL (≈ 576 µM)
Salmonella typhimurium [8]
  MIC: 256 µg/mL (≈ 576 µM)
Salmonella typhimurium [9]
  MIC: 32 µg/mL (≈ 72 µM)
Salmonella typhimurium [10]
  MIC: 1 µg/mL (≈ 2.25 µM)
Salmonella typhimurium [11]
  MIC: 32 µg/mL (≈ 72 µM)
Salmonella typhimurium [12]
  MIC: 1 µg/mL (≈ 2.25 µM)
Salmonella typhimurium [13]
  MIC: 1 µg/mL (≈ 2.25 µM)
Salmonella typhimurium [14]
  MIC: 4 µg/mL (≈ 9 µM)
Salmonella typhimurium [15]
  MIC: 2 µg/mL (≈ 4.5 µM)
Salmonella typhimurium [16]
  MIC: 256 µg/mL (≈ 576 µM)
Salmonella typhimurium [17]
  MIC: 64 µg/mL (≈ 144 µM)
Salmonella typhimurium [18]
  MIC: 2 µg/mL (≈ 4.5 µM)
Salmonella typhimurium [19]
  MIC: 32 µg/mL (≈ 72 µM)
Salmonella typhimurium [20]
  MIC: 1 µg/mL (≈ 2.25 µM)
Salmonella typhimurium [21]
  MIC: 32 µg/mL (≈ 72 µM)
Salmonella typhimurium [22]
  MIC: 1 µg/mL (≈ 2.25 µM)
Salmonella typhimurium [23]
  MIC: 1 µg/mL (≈ 2.25 µM)
Salmonella typhimurium [24]
  MIC: 1 µg/mL (≈ 2.25 µM)
Salmonella typhimurium [25]
  MIC: 4 µg/mL (≈ 9 µM)
Salmonella typhimurium [26]
  MIC: 2 µg/mL (≈ 4.5 µM)
Salmonella typhimurium [27]
  MIC: 256 µg/mL (≈ 576 µM)
Salmonella typhimurium [28]
  MIC: 1 µg/mL (≈ 2.25 µM)
Salmonella typhimurium [29]
  MIC: 1 µg/mL (≈ 2.25 µM)
Salmonella typhimurium [30]
  MIC: 256 µg/mL (≈ 576 µM)
Salmonella typhimurium [31]
  MIC: 32 µg/mL (≈ 72 µM)
Salmonella typhimurium [32]
  MIC: 1 µg/mL (≈ 2.25 µM)
Salmonella typhimurium [33]
  MIC: 128 µg/mL (≈ 288 µM)
Salmonella typhimurium [34]
  MIC: 256 µg/mL (≈ 576 µM)
Salmonella typhimurium [35]
  MIC: 128 µg/mL (≈ 288 µM)
Salmonella typhimurium [36]
  MIC: 256 µg/mL (≈ 576 µM)
Salmonella typhimurium [37]
  MIC: 1 µg/mL (≈ 2.25 µM)
Salmonella typhimurium [38]
  MIC: 1 µg/mL (≈ 2.25 µM)
Salmonella typhimurium [39]
  MIC: 256 µg/mL (≈ 576 µM)
Salmonella typhimurium [40]
  MIC: 32 µg/mL (≈ 72 µM)
Salmonella typhimurium [41]
  MIC: 4 µg/mL (≈ 9 µM)
